Test system: HUVECs
Test: Radiation-induced EndMT / stress fiber phenomic screening in HUVECs using the HCS system
Format: cell-based, human
Conditions: 48 hours, compared to IR (control) treated group; for Stress Fiber Pre-: HUVECs pre-treated 1 hour before radiation; for Stress Fiber Pre- / Stress Fiber Post-: Phalloidin; for Stress Fiber Post-: HUVECs treated after 10 Gy irradiation (3 hours)
Method: We established a phenomic screening platform to measure radiation-induced stress fibers and optimized the conditions for high-throughput screening using HUVEC cells to develop compounds targeting RIPF. […] 2-ME derivatives were prepared and their anti-fibrotic activities were tested in vitro [Table 3] and in vivo mouse models [FIGS. 1 and 2]. […] In this test, HUVECs were pre-treated with 2-ME derivatives at 1 hour before radiation and irradiated with 10 Gy. After 48 hours, HUVECs stained with Phalloidin and Hoechst to assess morphological changes Collagen type 1 (BD Collagen I, 354236, Thermo Fisher Scientific) was diluted in 70% ethanol, and then the collagen solution (400 μg/ml) was dispensed into each 384-well plate (6007550, Perkin Elmer, MA, US). After a 1-hour incubation at room temperature, the wells were rinsed twice with Dulbecco's phosphate-buffered saline. HUVECs were seeded at a density of 7×10^2 cells per well onto collagen-coated, 384-well plates and allowed to attach in complete growth media. Cells were then exposed to 10 Gy radiation at room temperature. After irradiation, the cells were incubated for an additional 3 hours. The compounds were tested at a final concentration of 10 μM in 0.5% dimethyl sulfoxide (DMSO; v/v) using an automated liquid handling system (Hummingbird, Analytik Jena, Jena, DE). After the 48-hour treatment, cells were fixed with 4% paraformaldehyde (w/v). The expression of actin filament was determined by incubation with 488-Phalloidin (1:100, MOP-[…], Thermo Fisher Scientific) using direct immunofluorescence staining. The nuclei were stained using Hoechst 33342 (1:1000, MOP-H3570, Thermo Fisher Scientific) at room temperature. For assay validation, a control run was performed. The low control consisted of three 384-well plates that contained irradiated cells, and the high control consisted of three 384-well plates that contained non-irradiated cells. For detecting and visualizing filamentous actin (F-actin) and nuclei, images were collected using an automated high-content imaging system with a 20× magnifying objective (Operetta, PerkinElmer). The acquired images were analyzed using an in-house software tool and Harmony 3.5.1® high-content imaging (Harmony, PerkinElmer) for segmentation of cells.

Structure (SMILES) | Stress Fiber Pre- (10 Gy) | Stress Fiber Post- (10 μM) | Cell number (HUVECs, 10 Gy, 10 μM)
COc1cc2c(cc1OC(C)=O)CCC1C2CC[C@@]2(C)C1CC[C@@H]2OC(C)=O (stereo partly shown) [compound 5] | O (there were stress fiber decreasing more than 20% compare to IR (control) treated group) |  | 
CCC(=O)Oc1cc2c(cc1OC)C1CC[C@@]3(C)C(CC[C@@H]3OC(=O)CC)C1CC2 (stereo partly shown) [compound 6] | O (there were stress fiber decreasing more than 20% compare to IR (control) treated group) |  | 
COc1cc2c(cc1OC(C)=O)CCC1C2CC[C@@]2(C)C1CC[C@@H]2O (stereo partly shown) [compound 10] | O (there were stress fiber decreasing more than 20% compare to IR (control) treated group) | O (there were stress fiber decreasing more than 20% compare to IR (control) treated group) | 
CCC(=O)Oc1cc2c(cc1OC)C1CC[C@@]3(C)C(CC[C@@H]3O)C1CC2 (stereo partly shown) [compound 11] | O (there were stress fiber decreasing more than 20% compare to IR (control) treated group) | O (there were stress fiber decreasing more than 20% compare to IR (control) treated group) | 
COc1cc2c(cc1O)CCC1C2CC[C@]2(C)C(=O)C=CC12 (stereo partly shown) [compound 2] |  |  | X (there were more than 10% changes in the cell number compare to IR (control) treated group)
